“And” between values parts separate entries of the source, which are not always exact repeats. Equal values may be shown once. Blank lines part the entries; values can stand above or below the compound they belong to.
Tested on: 379773-124-R-J2-PDC complex spheroids, viability % test/control
Assay: Anticancer human tumor 379773-124-R-J2-PDC patient-derived endometrial carcinoma cell line growth inhibition [CLK]
Details: for viability, T/C: stronger effect = lower value
Summary of the method: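 Patient-derived tumor cells grown as complex spheroids with HUVEC endothelial cells and mesenchymal stem cells, treated with drug combinations. Concentrations descend in half-log steps from near clinical Cmax, or from 10 microM if Cmax unknown.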

[1] = curve of first compound, second compound 0.0316 µM
[2] = curve of first compound, second compound 0.1 µM
[3] = curve of first compound, second compound 0.316 µM
[4] = curve of first compound, second compound 1 µM
[5] = curve of first compound, second compound 3.16 µM
[6] = curve of first compound, second compound 10 µM
[7] = second compound 0.0316 µM, first compound 0.0316 µM
[8] = second compound 0.0316 µM, first compound 0.1 µM
[9] = second compound 0.0316 µM, first compound 0.316 µM
[10] = second compound 0.0316 µM, first compound 1 µM
[11] = second compound 0.0316 µM, first compound 3.16 µM
[12] = second compound 0.0316 µM, first compound 10 µM
[13] = second compound 0.1 µM, first compound 0.0316 µM
[14] = second compound 0.1 µM, first compound 0.1 µM
[15] = second compound 0.1 µM, first compound 0.316 µM
[16] = second compound 0.1 µM, first compound 1 µM
[17] = second compound 0.1 µM, first compound 3.16 µM
[18] = second compound 0.1 µM, first compound 10 µM
[19] = second compound 0.316 µM, first compound 0.0316 µM
[20] = second compound 0.316 µM, first compound 0.1 µM
[21] = second compound 0.316 µM, first compound 0.316 µM
[22] = second compound 0.316 µM, first compound 1 µM
[23] = second compound 0.316 µM, first compound 3.16 µM
[24] = second compound 0.316 µM, first compound 10 µM
[25] = second compound 1 µM, first compound 0.0316 µM
[26] = second compound 1 µM, first compound 0.1 µM
[27] = second compound 1 µM, first compound 0.316 µM
[28] = second compound 1 µM, first compound 1 µM
[29] = second compound 1 µM, first compound 3.16 µM
[30] = second compound 1 µM, first compound 10 µM
[31] = second compound 3.16 µM, first compound 0.0316 µM
[32] = second compound 3.16 µM, first compound 0.1 µM
[33] = second compound 3.16 µM, first compound 0.316 µM
[34] = second compound 3.16 µM, first compound 1 µM
[35] = second compound 3.16 µM, first compound 3.16 µM
[36] = second compound 3.16 µM, first compound 10 µM
[37] = second compound 10 µM, first compound 0.0316 µM
[38] = second compound 10 µM, first compound 0.1 µM
[39] = second compound 10 µM, first compound 0.316 µM
[40] = second compound 10 µM, first compound 1 µM
[41] = second compound 10 µM, first compound 3.16 µM
[42] = second compound 10 µM, first compound 10 µM
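Further: compound exposure lasted seven days before the viability readout.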
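Wherever viability, T/C is given: 100% = DMSO vehicle control wells.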

Structure (SMILES): CC(CO)NC(=O)c1cc(-c2ccc(Cl)cc2)nn(-c2cnn(C)c2)c1=O (stereo not given) + CN1CCN(c2cc(C(=O)Nc3cc4cc(-c5cnn(C)c5)ccc4cn3)ccn2)CC1
IC50 [1]: > 10000 nM
IC50 [2]: > 10000 nM
IC50 [3]: < 31.6 nM
IC50 [4]: < 31.6 nM
IC50 [5]: < 31.6 nM
IC50 [6]: < 31.6 nM
viability, T/C [7]: 100%
viability, T/C [8]: 86.8%
viability, T/C [9]: 90.3%
viability, T/C [10]: 102%
viability, T/C [11]: 102%
viability, T/C [12]: 66.5%
viability, T/C [13]: 96.9%
viability, T/C [14]: 86.3%
viability, T/C [15]: 79.8%
viability, T/C [16]: 105%
viability, T/C [17]: 75.1%
viability, T/C [18]: 52.9%
viability, T/C [19]: 24.6%
viability, T/C [20]: 27.9%
viability, T/C [21]: 33.9%
viability, T/C [22]: 32.1%
viability, T/C [23]: 32.6%
viability, T/C [24]: 24.4%
viability, T/C [25]: 0.57%
viability, T/C [26]: 0.17%
viability, T/C [27]: 0.46%
viability, T/C [28]: 0.65%
viability, T/C [29]: 0.68%
viability, T/C [30]: 0.88%
viability, T/C [31]: 1.45%
viability, T/C [32]: 0.87%
viability, T/C [33]: 0.16%
viability, T/C [34]: 2.5%
viability, T/C [35]: 1.79%
viability, T/C [36]: 1.37%
viability, T/C [37]: 0.55%
viability, T/C [38]: 0.23%
viability, T/C [39]: 0.2%
viability, T/C [40]: 0.85%
viability, T/C [41]: 0.23%
viability, T/C [42]: 0.65%

IC50 (curve of compound): < 31.6 nM
Structure (SMILES): Nc1ccn(C2OC(CO)C(O)C2(F)F)c(=O)n1 (stereo not given)
viability, T/C (compound 0.0316 µM): 6.4% and 4.58%
viability, T/C (compound 0.1 µM): 5.3% and 4.24%
viability, T/C (compound 0.316 µM): 6.69% and 3.96%
viability, T/C (compound 1 µM): 5.77% and 4.69%
viability, T/C (compound 3.16 µM): 4.84% and 3.97%
viability, T/C (compound 10 µM): 3.93% and 3.21%

IC50 [1]: 38.6 nM
IC50 [2]: < 9.49 nM
IC50 [3]: < 9.49 nM
IC50 [4]: < 9.49 nM
IC50 [5]: < 9.49 nM
IC50 [6]: < 9.49 nM
Structure (SMILES): NC(=O)C(=Cn1cnc(-c2cc(C(F)(F)F)cc(C(F)(F)F)c2)n1)c1cncnc1 + CNC(=O)c1ccc(Nc2nc(OC3CCCC3)c3c(-c4ccc5nc(C)oc5c4)c[nH]c3n2)c(OC)c1
viability, T/C (second compound 0.0316 µM, first compound 0.00949 µM): 72.8%
viability, T/C (second compound 0.0316 µM, first compound 0.03 µM): 57.6%
viability, T/C (second compound 0.0316 µM, first compound 0.0949 µM): 25.4%
viability, T/C (second compound 0.0316 µM, first compound 0.3 µM): 12.7%
viability, T/C (second compound 0.0316 µM, first compound 0.949 µM): 7.15%
viability, T/C (second compound 0.0316 µM, first compound 3 µM): 2.1%
viability, T/C (second compound 0.1 µM, first compound 0.00949 µM): 32.3%
viability, T/C (second compound 0.1 µM, first compound 0.03 µM): 29.7%
viability, T/C (second compound 0.1 µM, first compound 0.0949 µM): 21.4%
viability, T/C (second compound 0.1 µM, first compound 0.3 µM): 12.4%
viability, T/C (second compound 0.1 µM, first compound 0.949 µM): 6.65%
viability, T/C (second compound 0.1 µM, first compound 3 µM): 2.59%
viability, T/C (second compound 0.316 µM, first compound 0.00949 µM): 36.7%
viability, T/C (second compound 0.316 µM, first compound 0.03 µM): 32.8%
viability, T/C (second compound 0.316 µM, first compound 0.0949 µM): 23.8%
viability, T/C (second compound 0.316 µM, first compound 0.3 µM): 12%
viability, T/C (second compound 0.316 µM, first compound 0.949 µM): 5.08%
viability, T/C (second compound 0.316 µM, first compound 3 µM): 1.7%
viability, T/C (second compound 1 µM, first compound 0.00949 µM): 31.9%
viability, T/C (second compound 1 µM, first compound 0.03 µM): 32.6%
viability, T/C (second compound 1 µM, first compound 0.0949 µM): 20.9%
viability, T/C (second compound 1 µM, first compound 0.3 µM): 10.4%
viability, T/C (second compound 1 µM, first compound 0.949 µM): 3.69%
viability, T/C (second compound 1 µM, first compound 3 µM): 0.49%
viability, T/C (second compound 3.16 µM, first compound 0.00949 µM): 30.1%
viability, T/C (second compound 3.16 µM, first compound 0.03 µM): 34.9%
viability, T/C (second compound 3.16 µM, first compound 0.0949 µM): 18.2%
viability, T/C (second compound 3.16 µM, first compound 0.3 µM): 7.24%
viability, T/C (second compound 3.16 µM, first compound 0.949 µM): 2.43%
viability, T/C (second compound 3.16 µM, first compound 3 µM): 0.24%
viability, T/C (second compound 10 µM, first compound 0.00949 µM): 37.7%
viability, T/C (second compound 10 µM, first compound 0.03 µM): 26.8%
viability, T/C (second compound 10 µM, first compound 0.0949 µM): 14.3%
viability, T/C (second compound 10 µM, first compound 0.3 µM): 7.07%
viability, T/C (second compound 10 µM, first compound 0.949 µM): 2.12%
viability, T/C (second compound 10 µM, first compound 3 µM): 0.82%

IC50 (curve of compound): 34.5 nM and < 31.6 nM
Structure (SMILES): COc1cccc2c1C(=O)c1c(O)c3c(c(O)c1C2=O)CC(O)(C(=O)CO)CC3OC1CC(N)C(O)C(C)O1 (stereo not given)
viability, T/C (compound 0.0316 µM): 53.6% and 49.6%
viability, T/C (compound 0.1 µM): 9.76% and 9.37%
viability, T/C (compound 0.316 µM): 7.51% and 5.56%
viability, T/C (compound 1 µM): 3.51% and 3.77%
viability, T/C (compound 3.16 µM): 1.61% and 0.59%
viability, T/C (compound 10 µM): 0.12% and 0.15%

Structure (SMILES): COC1C=CCC(C)C(C)S(=O)(=O)NC(=O)c2ccc3c(c2)N(CC2CCC21)CC1(CCCc2cc(Cl)ccc21)CO3 (stereo not given) + CN1CCN(c2cc(C(=O)Nc3cc4cc(-c5cnn(C)c5)ccc4cn3)ccn2)CC1
IC50 [1]: 4970 nM
IC50 [2]: 4750 nM
IC50 [3]: < 31.6 nM
IC50 [4]: < 31.6 nM
IC50 [5]: < 31.6 nM
IC50 [6]: < 31.6 nM
viability, T/C [7]: 87.2%
viability, T/C [8]: 97.5%
viability, T/C [9]: 74.6%
viability, T/C [10]: 86%
viability, T/C [11]: 79.7%
viability, T/C [12]: 4.02%
viability, T/C [13]: 77.2%
viability, T/C [14]: 73.5%
viability, T/C [15]: 78.7%
viability, T/C [16]: 78.2%
viability, T/C [17]: 76%
viability, T/C [18]: 2.54%
viability, T/C [19]: 24.8%
viability, T/C [20]: 29.9%
viability, T/C [21]: 30.9%
viability, T/C [22]: 26.5%
viability, T/C [23]: 29.6%
viability, T/C [24]: 1.06%
viability, T/C [25]: 0.39%
viability, T/C [26]: 0.17%
viability, T/C [27]: 0.35%
viability, T/C [28]: 0.18%
viability, T/C [29]: 0.65%
viability, T/C [30]: 0.11%
viability, T/C [31]: 0.12%
viability, T/C [32]: 0.14%
viability, T/C [33]: 1.19%
viability, T/C [34]: 0.82%
viability, T/C [35]: 0.11%
viability, T/C [36]: 0.1%
viability, T/C [37]: 0.48%
viability, T/C [38]: 0.72%
viability, T/C [39]: 0.18%
viability, T/C [40]: 1.21%
viability, T/C [41]: 0.37%
viability, T/C [42]: 0.23%

Reference: PubChem BioAssay AID2060604 (Molecular Pharmacology Branch, DTP, NCI, 2025)
